These results are taken from patent US12478628B2, “Germ cell nuclear factor ligands and methods of use thereof” (Saint Louis University, priority 2020, dated 2025).

Test [1] deals with i3 neurons differentiated from induced pluripotent stem cells (iPSCs). Nature of the test: iPSC differentiation to i3 neurons, morphology. The settings on record: ligand treatment before and during differentiation. Type of test: cell-based. More on the design: neurite outgrowth: dose or concentration left out as unconfirmed. The procedure: iPSC Differentiation to Neurons. For growing neurons from iPSC cells, the method described by Femandopulle were employed (Femandopulle et al., 2018). Briefly, cells were treated with doxycycline to turn on expression of Neurogenin-2 (NGN2), which irreversibly sets these cells on the path of neuronal differentiation. The cells were treated with doxycycline for 3 days (changing media every day), and then re-plate the cells onto new plates coated with PLO. For each time point, 21 samples were prepared (DMSO and ligands 34 and 80 at different concentrations, in triplicate).
An overview of the experiment timeline is shown as well: • Day 0: Plate iPSC on matrigel-coated 12-well plates • Day 2: Treat cells −/+ ligands in iPSC media • Day 3: Refeed cells induction media +Doxycycline −/+ ligands to start neuronal differentiation (Day 0 of differentiation) • Day 4: Refeed cells induction media +Doxycycline −/+ ligands (Day 1 of differentiation) • Day 5: Refeed cells induction media +Doxycycline −/+ ligands (Day 2 of differentiation) • Day 6: Take pictures; Refeed cells neuronal media −/+ ligands (Day 3 of differentiation) • Day 7: Collect cells for RNA/qPCR (Day 4 of differentiation)

Test [2] has as its target T1, GCNF LBD (Homo sapiens, UniProt Q15406).
T1 construct: Human GCNF (NR6A1) LBD (residues 248-480); made in house; host or cells: E. coli BL(21) DE3
T1 sequence (Q15406 248-480): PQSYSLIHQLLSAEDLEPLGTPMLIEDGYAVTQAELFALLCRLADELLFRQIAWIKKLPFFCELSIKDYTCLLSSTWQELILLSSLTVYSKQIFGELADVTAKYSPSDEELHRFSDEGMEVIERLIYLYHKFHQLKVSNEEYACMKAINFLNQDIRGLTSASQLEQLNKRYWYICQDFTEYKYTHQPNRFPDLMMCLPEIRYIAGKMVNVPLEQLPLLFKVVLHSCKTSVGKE
The experiment in a line: Differential scanning fluorimetry (DSF) of GCNF LBD. Type of test: binding. To be noted: 20 μM ligand; GCNF LBD Tm 41.9±0.6° C.; significance cutoff 2° C.; read-out: increase of melting temperature (ΔTm) of GCNF LBD. The procedure: DSF Assay. GCNF LBD (5 μM) were mixed with 1× Sypro orange (Invitrogen) in DSF buffer (50 mM HEPES, 50 mM KCl, 5 mM TCEP, 0.5 mM EDTA, pH 7.5). Test compounds was added at 1:1 molar equivalence as protein or replaced with DMSO control. Ten microliters (10 μL)×5 replicates for each sample were plated on 384-well PCR microplate. No protein control and no ligand references were also run simultaneously in 5 replicates on the same plate. A total of 450 compounds (Life Chemicals) previously selected from a nuclear-receptor-biased library targeting REV-ERB were analyzed. Thermal stability was assessed on a Quantstudio 6 instrument (Biosystems) by ramping the temperature from 25° C. to 95° C. at 0.05° C./s and protein melt shifts were subsequently quantified by Boltzmann-derived melting temperature (Tm) using the Protein Thermal Shift (ThermoFisher) software. Positive hits were identified when a thermal shift (ΔTm) of at least 2° C. was observed.
For the DSF ligand titration assay, ligands 30, 34 and 80 were titrated against 5 μM GCNF LBD with a ligand concentration series of 30, 20, 13, 9, 6, 4, 2.6, 1.7 and 0 μM from a 20 mM DMSO stock solution. DSF assay and analysis was then performed as described above. All DSF data were reported as mean±SEM.

Turning to `Cc1ccc(-n2ncc3c(N4CCOCC4)nc(NCc4ccco4)nc32)cc1` [Ligand 34, N-[(furan-2-yl)methyl]-1-(4-methylphenyl)-4-(morpholin-4-yl)-1H-pyrazolo[3,4-d]pyrimidin-6-amine], in test [1], the “area of cell bodies” value is given as “remain unchanged”, the neurite branching entry is recorded as “more extensive branching” and the neurite outgrowth result is “significant increase of neurite outgrowth”.

`O=C(Cn1cc(S(=O)(=O)c2ccccc2)c2ccccc21)N1CCc2ccccc21` [Ligand 80, 2-[3-(benzenesulfonyl)-1H-indol-1-yl]-1-(2,3-dihydro-1H-indol-1-yl)ethan-1-one]: in test [1], the “area of cell bodies” value is reported as “remain unchanged”, the neurite branching entry was “more extensive branching” and the neurite outgrowth entry is reported as “significant increase of neurite outgrowth”. The shift in melting temperature (ΔTm) (as a rule, the shift of the melting midpoint relative to a reference) at 20 µM in test [2] was more than 2 °C.
